For 6 compounds, IC50 and efflux ratio results are on record in patent US12447153B2, “HER2 mutation inhibitors” (Array BioPharma Inc., priority 2021, dated 2025).

For data set [1], the target named is ErbB2 with Exon 20 YVMA insertion (HER2-YVMA) (Homo sapiens (Human), UniProt P04626, INS775YVMA). In words: Cellular Phosphorylation Assay, Assay 4 (constitutive ErbB2 phosphorylation, NIH 3T3 cells). As to conditions: ErbB2 YVMA phosphorylation. It counts as cell-based.
The target of the next data set is EGFR (Homo sapiens (Human), UniProt P00533). In words: ErbB Enzyme Assay (HTRF KinEASE-TK), Assay 3. It counts as biochemical. As to conditions: EGFR enzyme.
For a further data set, the target named is ErbB2 WT (Homo sapiens (Human), UniProt P04626). The data set can be described thus: ErbB Enzyme Assay (HTRF KinEASE-TK), Assay 2. In kind it is biochemical. Particulars: ErbB2 WT enzyme.
ErbB2 WT, sequence (P04626 23-1255): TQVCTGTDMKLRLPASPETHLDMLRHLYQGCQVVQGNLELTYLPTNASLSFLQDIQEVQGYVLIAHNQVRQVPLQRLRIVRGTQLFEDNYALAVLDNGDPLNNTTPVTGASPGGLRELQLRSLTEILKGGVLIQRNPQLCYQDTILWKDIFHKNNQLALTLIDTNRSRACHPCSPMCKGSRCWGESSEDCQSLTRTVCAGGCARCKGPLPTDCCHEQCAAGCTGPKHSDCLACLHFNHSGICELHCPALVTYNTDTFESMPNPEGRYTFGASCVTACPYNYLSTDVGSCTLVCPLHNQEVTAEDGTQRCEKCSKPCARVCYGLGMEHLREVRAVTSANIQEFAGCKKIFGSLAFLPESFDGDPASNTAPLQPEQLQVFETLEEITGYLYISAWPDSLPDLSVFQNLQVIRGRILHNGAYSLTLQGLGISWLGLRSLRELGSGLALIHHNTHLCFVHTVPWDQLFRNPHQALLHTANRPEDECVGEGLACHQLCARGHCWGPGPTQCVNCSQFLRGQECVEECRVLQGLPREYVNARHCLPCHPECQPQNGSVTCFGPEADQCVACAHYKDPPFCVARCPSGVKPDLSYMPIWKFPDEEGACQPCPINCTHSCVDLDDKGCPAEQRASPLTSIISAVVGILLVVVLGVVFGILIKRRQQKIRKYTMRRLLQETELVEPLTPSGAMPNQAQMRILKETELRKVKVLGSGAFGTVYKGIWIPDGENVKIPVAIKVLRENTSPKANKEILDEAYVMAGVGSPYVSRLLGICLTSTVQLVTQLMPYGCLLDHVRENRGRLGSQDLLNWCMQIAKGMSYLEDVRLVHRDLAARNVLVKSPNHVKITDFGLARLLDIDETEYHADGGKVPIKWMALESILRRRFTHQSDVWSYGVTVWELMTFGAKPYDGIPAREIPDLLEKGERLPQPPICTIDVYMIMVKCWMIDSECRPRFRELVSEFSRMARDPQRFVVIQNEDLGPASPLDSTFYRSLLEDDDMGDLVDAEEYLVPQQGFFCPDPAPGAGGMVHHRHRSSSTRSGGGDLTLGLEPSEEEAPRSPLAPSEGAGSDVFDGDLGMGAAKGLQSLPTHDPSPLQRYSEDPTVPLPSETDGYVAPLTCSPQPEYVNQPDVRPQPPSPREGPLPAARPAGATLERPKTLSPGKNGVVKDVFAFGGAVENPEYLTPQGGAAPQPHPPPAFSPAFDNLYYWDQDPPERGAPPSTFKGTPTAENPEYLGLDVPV
The target in the next data set is MDR1 (P-gp) (Homo sapiens (Human), UniProt P08183). The data set can be described thus: in vitro. As to conditions: pig, LLC-PK1.
MDR1 (P-gp), sequence (P08183 whole entry): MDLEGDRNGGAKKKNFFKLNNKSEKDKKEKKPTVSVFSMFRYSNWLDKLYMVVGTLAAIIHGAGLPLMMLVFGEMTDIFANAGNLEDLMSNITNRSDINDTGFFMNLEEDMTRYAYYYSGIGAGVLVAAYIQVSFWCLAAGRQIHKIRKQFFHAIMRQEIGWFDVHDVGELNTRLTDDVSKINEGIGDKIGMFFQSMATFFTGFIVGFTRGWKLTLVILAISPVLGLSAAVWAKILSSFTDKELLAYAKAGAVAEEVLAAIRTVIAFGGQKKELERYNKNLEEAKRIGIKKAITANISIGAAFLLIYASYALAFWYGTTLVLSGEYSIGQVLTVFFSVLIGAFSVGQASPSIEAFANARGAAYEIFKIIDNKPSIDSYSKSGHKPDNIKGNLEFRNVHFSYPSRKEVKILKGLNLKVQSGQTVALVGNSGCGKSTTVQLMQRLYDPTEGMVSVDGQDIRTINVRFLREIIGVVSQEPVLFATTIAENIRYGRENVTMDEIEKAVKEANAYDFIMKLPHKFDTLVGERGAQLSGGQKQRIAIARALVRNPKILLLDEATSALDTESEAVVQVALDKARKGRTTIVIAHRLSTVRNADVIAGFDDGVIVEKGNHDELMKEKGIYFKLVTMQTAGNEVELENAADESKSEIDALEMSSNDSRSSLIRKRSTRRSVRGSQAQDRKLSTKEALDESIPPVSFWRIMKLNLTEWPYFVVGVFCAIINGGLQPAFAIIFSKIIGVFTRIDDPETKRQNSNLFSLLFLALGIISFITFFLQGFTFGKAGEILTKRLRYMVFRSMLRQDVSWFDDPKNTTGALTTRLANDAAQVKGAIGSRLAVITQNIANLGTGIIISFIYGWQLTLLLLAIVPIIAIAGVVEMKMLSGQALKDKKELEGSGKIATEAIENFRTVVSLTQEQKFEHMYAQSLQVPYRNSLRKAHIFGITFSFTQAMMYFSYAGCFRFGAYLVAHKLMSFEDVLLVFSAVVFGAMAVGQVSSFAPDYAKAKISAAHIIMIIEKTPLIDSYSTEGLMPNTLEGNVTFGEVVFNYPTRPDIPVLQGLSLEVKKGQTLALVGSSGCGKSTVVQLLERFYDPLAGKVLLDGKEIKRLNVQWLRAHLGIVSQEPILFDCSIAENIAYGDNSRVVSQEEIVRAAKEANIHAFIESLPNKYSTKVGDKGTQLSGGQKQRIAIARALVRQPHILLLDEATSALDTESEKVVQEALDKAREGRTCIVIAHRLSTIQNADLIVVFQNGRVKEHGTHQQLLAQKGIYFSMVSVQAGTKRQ
For a further data set, the target named is BCRP (Homo sapiens (Human), UniProt Q9UNQ0). In words: BCRP MDCKII efflux assay (Assay 7). Particulars: dog; efflux ratio Papp(B-A)/Papp(A-B), BCRP MDCKII cells; read-out: Assay 7 Pe Ratio. It counts as in vitro ADME. As to the method:
Assay conditions included with and without the BCRP-specific inhibitor, KO143, at a concentration of 0.3 μM to ascertain the contribution of BCRP to the efflux value of the test compound.
Final organic concentration in the assay was 1%.

The target in a further data set is EGFR wild type (EGFR WT) (Homo sapiens (Human), UniProt P00533). The data set can be described thus: Cellular Phosphorylation Assay, Assay 5 (EGF-stimulated EGFR phosphorylation, NIH 3T3 cells). It counts as cell-based. As to conditions: EGF-stimulated EGFR WT phosphorylation.

The structures appear in SMILES notation.

BCRP, sequence (Q9UNQ0 whole entry): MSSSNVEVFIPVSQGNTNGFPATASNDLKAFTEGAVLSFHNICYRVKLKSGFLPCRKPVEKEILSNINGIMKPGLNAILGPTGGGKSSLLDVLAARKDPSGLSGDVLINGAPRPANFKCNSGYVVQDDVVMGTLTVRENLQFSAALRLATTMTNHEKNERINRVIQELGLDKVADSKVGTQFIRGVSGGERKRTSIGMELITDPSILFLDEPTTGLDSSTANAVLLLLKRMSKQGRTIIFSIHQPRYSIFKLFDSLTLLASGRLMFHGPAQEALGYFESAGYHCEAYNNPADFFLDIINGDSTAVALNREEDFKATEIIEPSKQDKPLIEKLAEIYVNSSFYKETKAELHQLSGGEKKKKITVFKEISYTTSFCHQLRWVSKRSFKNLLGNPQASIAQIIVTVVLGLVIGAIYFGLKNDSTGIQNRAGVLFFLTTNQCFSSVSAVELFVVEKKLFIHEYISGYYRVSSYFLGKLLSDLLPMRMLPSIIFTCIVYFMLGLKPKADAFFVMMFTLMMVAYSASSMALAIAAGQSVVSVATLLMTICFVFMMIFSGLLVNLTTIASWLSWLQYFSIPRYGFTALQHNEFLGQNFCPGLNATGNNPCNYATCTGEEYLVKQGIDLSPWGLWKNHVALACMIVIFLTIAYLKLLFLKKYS
ErbB2 with Exon 20 YVMA insertion (HER2-YVMA), sequence (P04626 other isoform, or with tags, fused parts or gaps ins YVMA behind 775): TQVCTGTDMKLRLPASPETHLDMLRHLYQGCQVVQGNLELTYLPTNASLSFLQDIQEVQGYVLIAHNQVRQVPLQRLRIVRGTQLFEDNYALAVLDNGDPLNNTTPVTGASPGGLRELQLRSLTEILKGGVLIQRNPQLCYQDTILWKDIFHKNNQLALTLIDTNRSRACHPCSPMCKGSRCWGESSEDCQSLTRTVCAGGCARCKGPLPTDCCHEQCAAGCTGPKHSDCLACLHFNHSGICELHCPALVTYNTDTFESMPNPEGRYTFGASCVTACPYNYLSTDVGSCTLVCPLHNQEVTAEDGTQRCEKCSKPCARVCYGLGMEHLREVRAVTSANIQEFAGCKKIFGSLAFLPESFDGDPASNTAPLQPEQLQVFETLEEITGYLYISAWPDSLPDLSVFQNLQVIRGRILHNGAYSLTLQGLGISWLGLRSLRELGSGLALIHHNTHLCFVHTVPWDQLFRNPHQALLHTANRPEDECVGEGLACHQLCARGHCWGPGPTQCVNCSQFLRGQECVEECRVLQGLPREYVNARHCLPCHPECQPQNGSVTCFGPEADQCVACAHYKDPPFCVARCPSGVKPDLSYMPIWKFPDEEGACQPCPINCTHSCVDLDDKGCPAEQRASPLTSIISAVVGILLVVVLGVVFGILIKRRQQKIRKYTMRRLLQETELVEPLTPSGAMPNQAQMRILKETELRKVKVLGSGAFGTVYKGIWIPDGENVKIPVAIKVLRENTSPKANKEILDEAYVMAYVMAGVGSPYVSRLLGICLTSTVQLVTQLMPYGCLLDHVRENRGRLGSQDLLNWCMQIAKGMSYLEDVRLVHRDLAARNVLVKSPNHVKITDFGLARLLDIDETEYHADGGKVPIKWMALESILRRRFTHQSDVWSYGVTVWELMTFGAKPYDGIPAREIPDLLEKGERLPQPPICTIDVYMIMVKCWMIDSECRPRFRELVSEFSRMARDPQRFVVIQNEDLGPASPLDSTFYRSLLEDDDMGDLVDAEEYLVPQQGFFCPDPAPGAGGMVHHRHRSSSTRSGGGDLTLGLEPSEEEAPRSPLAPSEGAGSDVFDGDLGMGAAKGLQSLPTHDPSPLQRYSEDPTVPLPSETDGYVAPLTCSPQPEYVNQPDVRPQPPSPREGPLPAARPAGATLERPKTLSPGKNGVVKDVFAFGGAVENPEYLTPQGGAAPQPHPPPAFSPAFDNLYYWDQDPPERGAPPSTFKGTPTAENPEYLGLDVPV

For the compound `C=CC(=O)N1C2CC1CN(c1ccc3ncnc(Nc4ccc(Oc5ccn6ncnc6c5)c(Cl)c4F)c3n1)C2` [Example 25, 1-(3-(4-((4-([1,2,4]triazolo[1,5-a]pyridin-7-yloxy)-3-chloro-2-fluorophenyl)amino)pyrido[3,2-d]pyrimidin-6-yl)-3,6-diazabicyclo[3.1.1]heptan-6-yl)prop-2-en-1-one], the half-inhibitory concentration (IC50) worked out at 12.1 nM in data set [1], 558 nM at EGFR, 50.1 nM against ErbB2 WT and 324 nM against EGFR wild type (EGFR WT). In addition, the results for the efflux ratio at 2 h, 1 µM on MDR1 (P-gp) and at BCRP were 2.2 and 6.8, respectively.
As to `C=CC(=O)N1CCC(Sc2ccc3ncnc(Nc4ccc(Oc5ccc6c(c5)ncn6C)c(C)c4F)c3n2)CC1` [Example 28, 1-(4-((4-((2-fluoro-3-methyl-4-((1-methyl-1H-benzo[d]imidazol-5-yl)oxy)phenyl)amino)pyrido[3,2-d]pyrimidin-6-yl)thio)piperidin-1-yl)prop-2-en-1-one], the IC50 in data set [1] is 26.4 nM; against EGFR, not below 10000 nM; at ErbB2 WT, 275 nM; on EGFR wild type (EGFR WT), not below 5000 nM. For the same compound, the efflux ratio at 2 h, 1 µM is 2 at MDR1 (P-gp) and 5.2 on BCRP.
For `C=CC(=O)N1CCN(c2ccc3ncnc(Nc4ccc(Oc5ccn6ncnc6c5)c(Cl)c4F)c3n2)CC1` [Example 30, 1-(4-(4-((4-([1,2,4]triazolo[1,5-a]pyridin-7-yloxy)-3-chloro-2-fluorophenyl)amino)pyrido[3,2-d]pyrimidin-6-yl)piperazin-1-yl)prop-2-en-1-one], the IC50 in data set [1] amounted to 2.3 nM; on EGFR, 200 nM; against ErbB2 WT, 6 nM; against EGFR wild type (EGFR WT), 87.6 nM. In addition, the results for the efflux ratio at 2 h, 1 µM at MDR1 (P-gp) and at BCRP were 1.5 and 5, respectively.
As for `C=CC(=O)N1CCN(c2ccc3ncnc(Nc4ccc(Oc5ccn6ncnc6c5)c(C)c4F)c3n2)CC1(C)C` [Example 31, 1-(4-(4-((4-([1,2,4]triazolo[1,5-a]pyridin-7-yloxy)-2-fluoro-3-methylphenyl)amino)pyrido[3,2-d]pyrimidin-6-yl)-2,2-dimethylpiperazin-1-yl)prop-2-en-1-one], the half-maximal inhibitory concentration (IC50) in data set [1] turned out to be 22.7 nM; on EGFR it was 6540 nM; on ErbB2 WT it was 14.3 nM; against EGFR wild type (EGFR WT), 928 nM. Moreover, the efflux ratio at 2 h, 1 µM at MDR1 (P-gp) stood at 1.3; on BCRP it was 1.8.
`C=CC(=O)N1CCC(Oc2nc3c(Nc4ccc(Oc5ccn6ncnc6c5)c(Cl)c4F)ncnc3cc2OC)CC1` [Example 39, 1-(4-((4-((4-([1,2,4]triazolo[1,5-a]pyridin-7-yloxy)-3-chloro-2-fluorophenyl)amino)-7-methoxypyrido[3,2-d]pyrimidin-6-yl)oxy)piperidin-1-yl)prop-2-en-1-one]: the IC50 in data set [1] came to 5.3 nM; against EGFR, 49.3 nM; against ErbB2 WT, 5.5 nM; against EGFR wild type (EGFR WT), 46.8 nM. Besides, the values for the efflux ratio at 2 h, 1 µM on MDR1 (P-gp) and at BCRP were 2.3 and 2.6, respectively.
In the case of `C=CC(=O)N1CCC(c2nc3c(Nc4ccc(Oc5ccc6c(c5)ncn6C)c(C)c4)ncnc3cc2OC)CC1` [Example 42, 1-(4-(7-methoxy-4-((3-methyl-4-((1-methyl-1H-benzo[d]imidazol-5-yl)oxy)phenyl)amino)pyrido[3,2-d]pyrimidin-6-yl)piperidin-1-yl)prop-2-en-1-one], the IC50 in data set [1] was 17 nM; at EGFR, 778 nM; on ErbB2 WT it was 14.7 nM; against EGFR wild type (EGFR WT), not below 5000 nM. Further, the efflux ratio at 2 h, 1 µM on MDR1 (P-gp) was found to be 2.5; at BCRP it was 2.9.
